# Values quoted from earlier work, collected in patent US20260115234A1, “PRODUCTION & SECRETION OF AUXIN-LIKE MOLECULES IN BACTERIA” (SNIPR Biome ApS, priority 2023, published 2026).
# Assays:
# [1] = test system: RFP reporter in strain TG1; details: relative fluorescence of plasmids in strain TG1 grown in LB media to saturation
# [2] = test system: A549 human lung cancer cells
# [3] = test system: MCF-7 human breast cancer cells
# [4] = test system: HIV replication in infected H9 lymphocytes
Compound,Measured Strength (Anderson Score) [1],further results
"BBa_J23105: Anderson Promoter Collection promoter, Seq ID No: 10 (DNA TTTACGGCTAGCTCAGTCCTAGGTACTATGCTAGC; expressed or natural sequence)",0.24,–
"BBa_J23116: Anderson Promoter Collection promoter, Seq ID No: 21 (DNA TTGACAGCTAGCTCAGTCCTAGGGACTATGCTAGC; expressed or natural sequence)",0.16,–
"BBa_J23112: Anderson Promoter Collection promoter, Seq ID No: 17 (DNA CTGATAGCTAGCTCAGTCCTAGGGATTATGCTAGC; expressed or natural sequence)",0,–
"BBa_J23103: Anderson Promoter Collection promoter, Seq ID No: 8 (DNA CTGATAGCTAGCTCAGTCCTAGGGATTATGCTAGC; expressed or natural sequence)",0.01,–
"BBa_J23106: Anderson Promoter Collection promoter, Seq ID No: 11 (DNA TTTACGGCTAGCTCAGTCCTAGGTATAGTGCTAGC; expressed or natural sequence)",0.47,–
"BBa_J23117: Anderson Promoter Collection promoter, Seq ID No: 22 (DNA TTGACAGCTAGCTCAGTCCTAGGGATTGTGCTAGC; expressed or natural sequence)",0.06,–
"O=C(O)c1c[nH]c2ccccc12 [ICA, indole-3-carboxylic acid]",–,EC50 cytotoxicity [2]: 4.6 µg/mL; EC50 cytotoxicity [3]: 12.9 µg/mL; IC50 inhibition of HIV replication [4]: 16.4 µg/mL
"BBa_J23108: Anderson Promoter Collection promoter, Seq ID No: 13 (DNA CTGACAGCTAGCTCAGTCCTAGGTATAATGCTAGC; expressed or natural sequence)",0.51,–
"BBa_J23118: Anderson Promoter Collection promoter, Seq ID No: 23 (DNA TTGACGGCTAGCTCAGTCCTAGGTATTGTGCTAGC; expressed or natural sequence)",0.56,–
"BBa_J23114: Anderson Promoter Collection promoter, Seq ID No: 19 (DNA TTTATGGCTAGCTCAGTCCTAGGTACAATGCTAGC; expressed or natural sequence)",0.1,–
"BBa_J23109: Anderson Promoter Collection promoter, Seq ID No: 14 (DNA TTTACAGCTAGCTCAGTCCTAGGGACTGTGCTAGC; expressed or natural sequence)",0.04,–
"BBa_J23115: Anderson Promoter Collection promoter, Seq ID No: 20 (DNA TTTATAGCTAGCTCAGCCCTTGGTACAATGCTAGC; expressed or natural sequence)",0.15,–
"BBa_J23110: Anderson Promoter Collection promoter, Seq ID No: 15 (DNA TTTACGGCTAGCTCAGTCCTAGGTACAATGCTAGC; expressed or natural sequence)",0.33,–
"BBa_J23111: Anderson Promoter Collection promoter, Seq ID No: 16 (DNA TTGACGGCTAGCTCAGTCCTAGGTATAGTGCTAGC; expressed or natural sequence)",0.58,–
"BBa_J23104: Anderson Promoter Collection promoter, Seq ID No: 9 (DNA TTGACAGCTAGCTCAGTCCTAGGTATTGTGCTAGC; expressed or natural sequence)",0.72,–
"BBa_J23113: Anderson Promoter Collection promoter, Seq ID No: 18 (DNA CTGATGGCTAGCTCAGTCCTAGGGATTATGCTAGC; expressed or natural sequence)",0.01,–
"BBa_J23107: Anderson Promoter Collection promoter, Seq ID No: 12 (DNA TTTACGGCTAGCTCAGCCCTAGGTATTATGCTAGC; expressed or natural sequence)",0.36,–
"BBa_J23100: Anderson Promoter Collection constitutive promoter, Seq ID No: 5 (DNA TTGACGGCTAGCTCAGTCCTAGGTACAGTGCTAGC; expressed or natural sequence)",1,–
"BBa_J23101: Anderson Promoter Collection promoter, Seq ID No: 6 (DNA TTTACAGCTAGCTCAGTCCTAGGTATTATGCTAGC; expressed or natural sequence)",0.7,–
"BBa_J23102: Anderson Promoter Collection promoter, Seq ID No: 7 (DNA TTGACAGCTAGCTCAGTCCTAGGTACTGTGCTAGC; expressed or natural sequence)",0.86,–
